Data from patent US20230181905A1, “Systems, Devices, and Methods for Enhancing the Neuroprotective Effects of Non-Invasive Gamma Stimulation with Pharmacological Agents” (Massachusetts Institute of Technology, priority 2021, published 2023).

Tests used:
Type in all cases: in vivo, mouse
[1] = tested on: vGLUT1; test: vGLUT1 western blot and puncta, overall and within WFA; conditions: 5×FAD mice
Excerpt: It was reasoned that the increased WFA coverage and enhanced phase locking of neurons after these treatments are related. […] WFA has been predominantly observed around interneurons, specifically PV interneurons. vGLUT1 (Synaptic Systems, #1135 302), an excitatory synaptic marker, was labeled with WFA. It was observed that the overall vGLUT1 signal was higher after Plx3397+GENUS treatment in mice (ANOVA, F (3,22)=3,686, P=0.0273) (FIGS. 18A, 18B). WFA was 3D rendered and surface created and examined (vGLUT1) within WFA, and observed increased vGLUT1 within WFA (Nested ANOVA, F (3,29)=3.377, P=0.0493) (FIGS. 18A, 18C).
vGAT and vGLUT1 puncta: LSM 710, with a 40× objective, was used to acquire the images. The entire […] thickness of the slices was acquired in Z stacks—80 per image (step of 0.5 μm). The spot-count inbuilt function in Imarisx64 9.3 was used to count cells automatically.
These observations point to synaptic connectivity, PNN extracellular architecture, and myelination as biological processes that GENUS impacts to improve the outcomes in Plx3397 administered 5×FAD mice. To further validate this, additional biochemical analyses were performed. […]
The brain was perfused with PBS and fixed with 4% PFA. […] Signal intensities were quantified using ImageJ 1.46q and normalized to values of loading control.

[2] = tested on: C1q; test: C1q signal intensity immunohistochemistry; conditions: 5×FAD mice
Excerpt: Elevated expression of C1q is observed in both human AD and mouse models of AD, and further such an elevated expression is closely associated with the elimination of synapses in microglia. In addition, MHC2 expression is increased in the AD brain. Therefore, to test whether these treatments, that improved synaptic density, had any effect on these neuroinflammatory markers, C1q (Abcam, #ab182451) and MHC2 (EMD Millipore, #MABF33) levels (FIGS. 5A-5D) were examined.
C1q and MHC2 signal intensity: Using an LSM 710 with a 20× or 40× objectives, z stacks of the entire slice thickness […] (40 images from each field) were acquired. The signal intensity was measured.
C1q and MHC2 signal intensity: Using an LSM 710 with a 20× or 40× objectives, z stacks of the entire slice thickness […] (40 images from each field) were acquired. The signal intensity was measured in Imaris.

[3] = tested on: 5×FAD mice; test: Novel object recognition test in 5×FAD mice; conditions: chance level 50%, control 51.33±4.15
Protocol: Given the neuroprotective effect of Plx3397+GENUS treatment, whether this treatment also impacted learning and memory was evaluated. Mice were tested in an open field (OF) and assessed for changes in anxiety and activity levels, followed by a novel object recognition (NOR) test of memory. 10-month-1d 5×FAD mice were treated with Plx3397. Following 20 days administration of Plx3397 chow, untreated- and Plx3397 treated 5×FAD mice (which continued PLX administration) were subjected to 30 days of daily GENUS. Mice were tested in OF and NOR during the last week of these treatments. […] Next, CK-p25 mice were treated for 42 days and assessed behavioral performance.
For OF, mice were introduced into an open field box (dimensions: length=460 mm, width=460 mm and height=400 mm; TSE-Systems) and were tracked using Noldus (Ethovision) for 12 min, with time spent in the center and peripheral area of the arena measured. […] Mouse behavior was monitored for 7 min. Time spent exploring both the familiar and novel objects was recorded using Noldus and computed offline. Percentage of novelty preference index was calculated as follows: time exploring novel object (Nt) divided by total time exploring novel and familiar (Ft) objects and presented in %−{[Nt/Nt+Ft]*100}.

FC(F)(F)c1ccc(CNc2ccc(Cc3c[nH]c4ncc(Cl)cc34)cn2)cn1 [Plx3397, Pexidartinib]
vGLUT1 level (western blot) ([1]; visual cortex, control 100±7.30): 130.1±10.05 | vGLUT1 synaptic puncta in the WFA of PV interneurons ([1]; controls 313.4±13.20): 332.7±13.14 % of no treatment control | C1q levels ([2]; hippocampus, chronic Plx3397 vs control): reduced | C1q ([2]; visual cortex, Plx3397 50 days): 22040955±1586416 au | preference for the novel object in the NOR test (novelty index) [3]: 57.55±7.00%
